Source: publication PMC8406801, “Naringenin Inhibits Platelet Activation and Arterial Thrombosis Through Inhibition of Phosphoinositide 3-Kinase and Cyclic Nucleotide Signaling” (Frontiers in Pharmacology, 2021)
“And” between values parts separate entries of the source, which are not always exact repeats. Equal entries are not always repeated.

Columns and labels:
[1] = system: integrin αIIbβ3 inside-out signaling (fibrinogen binding) in washed platelets; test: ADP-stimulated fibrinogen binding (flow cytometry); format: cell-based, rat; conditions: ADP 10 μM; for Fibrinogen binding (%): single replicates; for fibrinogen binding: mean ± SD, n = 3, 55.67 ± 9.62% with ADP alone
Experimental: Flow cytometric assays were performed as described previously ([Wang et al., 2019]). ADP-stimulated P-selectin exposure and fibrinogen binding were determined in washed platelets. […] The platelets were immediately incubated with PE-labeled CD62P or FITC-labeled fibrinogen in the dark at room temperature for 15 min. The cells were finally fixed with 1% (v/v) paraformaldehyde prior to analysis using an Accuri C6 flow cytometer (BD Biosciences, United States).

cAMP = test: Measurement of cAMP in washed platelets (ELISA); format: cell-based, rat; conditions: single replicates
Experimental: Washed platelets were preincubated with vehicle or various concentrations of naringenin in the presence of 2 mM CaCl2 at 37°C for 5 min and then stimulated with ADP (10 μM) for 5 min for platelet aggregation. The reaction was terminated by adding EDTA (10 mM). The platelets were boiled for 5 min at 100 °C followed by centrifugation at 13,000 × g for 5 min cAMP and cGMP levels in the supernatant were measured using cAMP or cGMP enzyme immunoassay kits (Cayman Chemicals, Ann Arbor, MI, United States).
FIGURE 6 Naringenin elevates platelet cGMP levels and inhibits phosphodiesterase activity. The levels of cAMP (A) and cGMP (B) in washed platelets preincubated with vehicle or naringenin (100, 200, 400, and 800 μmol/L) were determined after stimulation with ADP (10 μmol/L) using ELISA kits. Similarly, the levels of cAMP (C) and cGMP (D) were determined in resting platelets incubated with naringenin (200, 400, and 800 μmol/L) or vehicle for 5 min. R represents the levels of cAMP or cGMP in resting platelets. Data are expressed as means ± SD (n = 4). *p < 0.05, ***p < 0.001 compared with the vehicle control group. The effects of naringenin on phosphodiesterase activity were measured by HPLC on the hydrolysis of cAMP (E) and cGMP (F). The level of phosphodiesterase activity obtained with vehicle control (0 μM) was taken as 100%. Data are expressed as means ± SD (n = 3). *p < 0.05, ***p < 0.001 compared with the vehicle control group.

[2] = system: washed platelets on collagen-coated coverslips; test: Platelet adhesion on collagen-coated surface; format: cell-based, rat; conditions: for Area (%) of platelets adherent on collagen: single replicates
Experimental: Washed platelets were treated with naringenin or vehicle at 37°C for 10 min in the presence of 2 mM CaCl2 ([Suzuki-Inoue et al., 2001]). The platelets were added to collagen-coated coverslips and incubated at 37°C for 45 min. After unbound platelets were removed by washing, adherent platelets were fixed with 4% paraformaldehyde, permeabilized with 0.1% Triton X-100 and stained with TRITC-conjugated phalloidin (1 μg/ml). Adherent platelets were viewed using an inverted fluorescence microscope (Nikon TE-2000S) and processed using Image J software.

[3] = system: carotid arterial thrombus; test: FeCl3-induced carotid arterial thrombus model in rats; format: in vivo, rat; conditions: for Occlusion time: 10% FeCl3, single animals, no occlusion within 20 min recorded as 20 min
Experimental: To determine the effects of naringenin on thrombogenesis, a FeCl3-induced carotid arterial thrombus model was performed as reported previously with some modifications ([Eckly et al., 2011]). […] The rats were anaesthetized using 1% pentobarbital sodium salt and fixed supinely after the last administration. The left carotid artery was exposed and thrombosis was induced by applying a Whatman filter paper (5 mm × 1 mm) saturated with 10% (w/v) FeCl3 on the top of the left carotid artery for 5 min. […] Time to occlusion of the carotid artery was defined as a blood flow of 0 ml/min for 3 min. […] At the end of the experiment, the left carotid artery was dissected. A haematoxylin and eosin stain was performed on the artery.

In the case of `O=C1C[C@@H](c2ccc(O)cc2)Oc2cc(O)cc(O)c21` [Naringenin], the “Fibrinogen binding (%)” value ([1]; 200 μM) is reported as 42.78% and 35.40% and 54.20%, the fibrinogen binding ([1]; 400 μM) is reported as 31.74 ± 5.85% and the “Fibrinogen binding (%)” value ([1]; 400 μM) is reported as 31.71% and 25.90% and 37.60%. The fibrinogen binding ([1]; 800 μM) was 20.48 ± 4.63%, the “Fibrinogen binding (%)” value ([1]; 800 μM) was 21.04% and 15.60% and 24.80% and the “cAMP release” value (cAMP; ADP 10 μmol/L-stimulated platelets, 100 μM) was 21.36 pmol/mL and 22.41 pmol/mL and 21.09 pmol/mL and 22.01 pmol/mL. The “cAMP release” value (cAMP; ADP 10 μmol/L-stimulated platelets, 200 μM) was 21.75 pmol/mL and 22.14 pmol/mL and 22.01 pmol/mL and 23.59 pmol/mL, the “cAMP release” value (cAMP; ADP 10 μmol/L-stimulated platelets, 400 μM) was 27.54 pmol/mL and 26.36 pmol/mL and 22.01 pmol/mL and 20.04 pmol/mL and the “cAMP release” value (cAMP; ADP 10 μmol/L-stimulated platelets, 800 μM) was 22.54 pmol/mL and 21.62 pmol/mL and 23.20 pmol/mL and 26.75 pmol/mL. The “cAMP release” value (cAMP; resting platelets, 200 μM, 5 min) was 19.51 pmol/mL and 23.07 pmol/mL and 21.88 pmol/mL and 25.17 pmol/mL, the “cAMP release” value (cAMP; resting platelets, 400 μM, 5 min) was 23.59 pmol/mL and 22.67 pmol/mL and 21.88 pmol/mL and 20.96 pmol/mL and the “cAMP release” value (cAMP; resting platelets, 800 μM, 5 min) was 19.64 pmol/mL and 23.59 pmol/mL and 22.67 pmol/mL and 22.14 pmol/mL. The “Area (%) of platelets adherent on collagen” value (“Area (%)” for short) ([2]; 100 μM) was 29.32% and 16.92% and 17.38%, the “Area (%)” value ([2]; 200 μM) was 17.54% and 13.16% and 17.35% and the “Area (%)” value ([2]; 400 μM) was 12.99% and 15.28% and 9.21%. The “Area (%)” value ([2]; 800 μM) was 2.55% and 1.74% and 1.66%, the “platelet adhesion on collagen-coated surface” value ([2]; 200, 400 and 800 μM) was “significantly reduced” and the “H&E-stained carotid artery: thrombus formation and vascular endothelial injury” value ([3]; naringenin pretreatment, 10% FeCl3) was “diminish thrombus formation and protect against vascular endothelial injury”. For the same compound, the “Occlusion time” value ([3]; oral 200 mg/kg for 7 days, 200 mg/kg) was 7.5 min and 11.3 min and 8.5 min and 8.0 min and 9.5 min and 10.3 min, the “Occlusion time” value ([3]; oral 400 mg/kg for 7 days, 400 mg/kg) was 11.0 min and 10.5 min and 13.0 min and 14.0 min and 15.0 min and the “10% FeCl3-thrombus formation (time to vessel occlusion)” value ([3]; oral 800 mg/kg for 7 days) was “markedly attenuated”. The “Occlusion time” value ([3]; oral 800 mg/kg for 7 days, 800 mg/kg) was 13.3 min and 15.3 min and 20.0 min and 18.0 min and the “10% FeCl3-thrombus formation (time to vessel occlusion)” value ([3]; oral 200 and 400 mg/kg for 7 days) was “less inhibition”.
